The structures appear in SMILES notation.

This is an account of results in BindingDB's records for patent US20240025883 (Hoffmann-La Roche, 2024).

Sequence of Uracil nucleotide/cysteinyl leukotriene receptor (Q13304 whole entry, canonical isoform): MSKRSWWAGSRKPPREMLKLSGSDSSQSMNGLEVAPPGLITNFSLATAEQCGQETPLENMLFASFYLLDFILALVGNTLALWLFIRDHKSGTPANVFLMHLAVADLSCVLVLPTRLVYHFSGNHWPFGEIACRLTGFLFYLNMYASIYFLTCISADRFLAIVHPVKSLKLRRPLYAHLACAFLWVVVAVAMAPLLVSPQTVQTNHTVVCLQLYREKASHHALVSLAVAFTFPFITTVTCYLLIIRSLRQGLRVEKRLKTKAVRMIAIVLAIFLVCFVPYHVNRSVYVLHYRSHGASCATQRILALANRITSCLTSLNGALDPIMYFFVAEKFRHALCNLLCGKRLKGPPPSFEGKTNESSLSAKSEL

The target of the assay is Uracil nucleotide/cysteinyl leukotriene receptor (Homo sapiens, UniProt Q13304). The experiment in a line: GPR17 cAMP Assay Protocol. The protocol:
GPR17 cAMP Assay Protocol: CHO-K1 cells stably expressing vector containing untagged human GPR17 short isoform (Roche) were cultured at 37° C./5% CO2 in DMEM (Dulbecco's Modified Eagle Medium):F-12 (1:1) supplemented with 10% foetal bovine serum and 400 μg/ml Geneticin. Changes in intracellular cyclic adenosine monophosphate (cAMP) levels were quantified using the Nano-TRF Detection Assay kit (Roche Diagnostics, Cat. No. 05214386001). This assay allows for direct cAMP quantification in a homogeneous solution, cAMP is detected based on time-resolved fluorescence energy transfer (TR-FRET) and competitive binding of ruthenylated cAMP and endogenous cAMP to an anti-cAMP monoclonal antibody labeled with AlexaFluor-700. The Ruthenium complex serves as the FRET donor and transfers energy to AlexaFluor-700. The FRET signal is inversely proportional to the cAMP concentration. CHO-GPR17S cells were detached with Accutase and resuspended in assay buffer consisting of Hank's Balanced Salt Solution (HBSS), 10 mM HEPES (4-(2-hydroxyethyl) piperazine-1-ethanesulfonic acid solution) and 0.1% bovine serum albumin (pH 7.4). The cells were seeded in black 384-well plates (Corning) at a density of 10,000 cells/20 μl assay buffer until the addition of compounds.
One may read the IC50 as the midpoint of a concentration-inhibition curve. A lower IC50 goes with inhibition by little substance. In turn, `COc1nc(NS(=O)(=O)c2c[nH]c3nc(C(F)F)ccc23)nc(OC)c1OCC(F)F` [US20240025883, Example 96] gave an IC50 of 29 nM. This lies in the double-digit nanomolar range. `COc1nc(NS(=O)(=O)c2c[nH]c3cc(C(F)F)ccc23)nc(OC)c1OCC(F)F` [US20240025883, Example 102] gave an IC50 of 14 nM. Consider `COc1nc(NS(=O)(=O)c2c[nH]c3cc(Cl)ccc23)nc(OC)c1OCC(F)F` [US20240025883, Example 54], for which 17 nM corresponded to half-maximal inhibition (IC50). `COc1nc(NS(=O)(=O)c2c[nH]c3nc(C(F)F)ccc23)nc(OC)c1OC(F)(F)CF` [US20240025883, Example 97] came in with an IC50 of 50 nM. In the case of `COc1nc(NS(=O)(=O)c2c[nH]c3c(C#N)c(Cl)ccc23)nc(OC)c1CC(F)F` [US20240025883, Example 227], 22 nM corresponded to half-maximal inhibition (IC50). Against the preceding compound, the IC50 is about 2.3-fold lower.

With `COc1nc(NS(=O)(=O)c2c[nH]c3c(C#N)c(Cl)ccc23)nc(OC)c1OCCF` [US20240025883, Example 225], half-maximal inhibition (IC50) was put at 32 nM. Consider `COc1nc(NS(=O)(=O)c2c[nH]c3nc(C(F)F)ccc23)nc(OC)c1OCCF` [US20240025883, Example 95], for which the IC50 is 68 nM. Compound `COc1nc(NS(=O)(=O)c2c[nH]c3cc(SC)ccc23)ncc1CC(F)F` [US20240025883, Example 193] showed an IC50 of 96 nM. Regarding `COc1nc(NS(=O)(=O)c2c[nH]c3cc(Cl)ccc23)nc(OC)c1OC(F)(F)CF` [US20240025883, Example 55], the IC50 is 17 nM. Compound `COc1nc(NS(=O)(=O)c2c[nH]c3c(C#N)c(Cl)ccc23)nc(OC)c1OCC(F)F` [US20240025883, Example 226] had an IC50 of 35 nM. As to `COc1nc(NS(=O)(=O)c2c[nH]c3c4c(ccc23)COC4)ncc1CC(F)F` [US20240025883, Example 228], the IC50 worked out at 161 nM. On to `COc1nc(NS(=O)(=O)c2c[nH]c3cc(F)ccc23)nc(OC)c1OC(F)(F)CF` [US20240025883, Example 87], for which 66 nM corresponded to half-maximal inhibition (IC50).
